Test results from patent US5216001A, “Indole derivatives” (H. Lunbeck A/S, priority 1990, dated 1993).
Like-named read-outs stand apart in the source and are kept apart here.

Key:
[1] = molecular target: T1, serotonin S2 (5-HT2) receptors (Rattus norvegicus, UniProt P14842); assay: inhibition of 3H-ketanserin binding to serotonin S2 (5-HT2) receptors in rat cortex in vitro; conditions: 3H-ketanserin 0.5 nM, rat cortex membranes, read-out: Binding IC50, 3H Ket.
T1 construct: cortical tissue is dissected and weighed; from tissue; host or cells: cerebral cortex membranes of male Wistar (Mol:Wist) rats
T1 sequence (P14842 whole entry): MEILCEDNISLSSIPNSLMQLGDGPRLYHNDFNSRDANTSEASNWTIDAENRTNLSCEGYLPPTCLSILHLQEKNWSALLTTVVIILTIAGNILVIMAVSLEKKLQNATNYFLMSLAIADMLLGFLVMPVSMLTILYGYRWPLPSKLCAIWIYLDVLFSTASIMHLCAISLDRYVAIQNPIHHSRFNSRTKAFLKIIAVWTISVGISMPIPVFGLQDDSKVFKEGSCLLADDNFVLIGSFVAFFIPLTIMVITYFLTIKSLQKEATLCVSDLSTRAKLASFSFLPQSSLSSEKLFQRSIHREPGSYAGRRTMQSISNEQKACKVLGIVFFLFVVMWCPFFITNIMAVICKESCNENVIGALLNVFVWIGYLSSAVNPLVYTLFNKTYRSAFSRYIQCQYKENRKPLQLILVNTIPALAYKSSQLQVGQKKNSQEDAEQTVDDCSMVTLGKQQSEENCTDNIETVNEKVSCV
Protocol: Method in Hyttel, Pharmacology & Toxicology, 61, 126-129. 1987.
Male Wistar (Mol:Wist) rats (125-250 g) are sacrifices and cortical tissue is dissected and weighed. The tissue is homogenized (Ultra Turrax, 10 sec.) in 10 ml of ice-cold 50 mM tris buffer pH 7.7 (at 25° C.). The centrifuge glassware used in this step has been rinsed by sonication for 10 min. in ethanol. The homogenate is centrifuged twice at 20,000 g for 10 min. at 4° C. with rehomogenization of the pellet in 10 ml ice-cold buffer. The final pellet is homogenized in 500 vol (w/v) ice-cold buffer.
Incubation tubes kept on ice in triplicate receive 100 μl of drug solution in water (or water for total binding) and 2000 μl of tissue suspension (final tissue content corresponds to 4 mg original tissue). […] After incubation for 30 min. the samples are filtered under vacuum (0-50 mBar) through Whatman GF/F filters (25 mm). The tubes are rinsed with 5 ml ice-cold buffer which are then poured on the filters. Thereafter, the filters are washed with 2×5 ml of buffer. The filters are placed in counting vials and 4 ml of appropriate scintillation fluid (e.g., Picofluor™15) are added. After shaking for 1 h and storage 2 hrs in the dark the content of radioactivity is determined by liquid scintillation counting. Specific binding is obtained by subtracting the nonspecific binding in the presence of 1 μM mianserin. For determination of the inhibition of binding five concentrations of drugs covering 3 decades are used.
The IC50 value is determined as the concentration at which the binding is 50% of the total binding in control samples minus the nonspecific binding in the presence of 1 μM mianserin.

5-HT2 = molecular target: T2, 5-HT2 (Rattus norvegicus, UniProt P14842); assay: quipazine inhibition (quipazine-induced head twitches in rats); type: in vivo
T2 construct: Four rats, male Wistar (Mol:Wist) SPF rats weighing 170-240 g; from tissue; host or cells: living male Wistar (Mol:Wist) SPF rats (in vivo, endogenous receptor)
T2 sequence (P14842 whole entry): as above
Protocol: Quipazine is a 5-HT2 agonist, which induces head twitches in rats. The test is a test for 5-HT2 -antagonistic effect testing the ability to inhibit head twitches. The method and test results for some reference substances are published by Arnt et al. (Drug Development Research, 16, 59-70, 1989).
Test substance is injected s.c. 2 hrs before or p.o. 24 hrs before quipazine administration (6.8 mg/kg, s.c., dimaleate). Four rats, male Wistar (Mol:Wist) SPF rats weighing 170-240 g, are used at each dose level. A control group is included each test day. By repeated testing (2, 24 hrs) the control group is the same, however. After quipazine administration the rats are individually placed in the observation cages and head twitches are counted in an observation period of 30-40 min. after injection of quipazine.
Total number of head twitches in each group is calculated and the result for each dose is expressed as per cent of the response in the control group. ED50 values are calculated by log-probit analysis. The test must be repeated if the average number of head twitches is lower than 9 in the control group.

DA D-2 = molecular target: T3, DA D-2 (Rattus norvegicus, UniProt P61169); assay: antagonism of pergolide-induced circling behaviour in rats with unilateral 6-OHDA lesions; type: in vivo; conditions: sc, read-out: Pergolide rot. inhibition ED50, 2h (sc), 6-OHDA lesions, s.c., 2 h before pergolide
T3 construct: Male Wistar rats (Mol:Wist) weighing about 200 g at the time of operation are used; from tissue; host or cells: living male Wistar (Mol:Wist) rats with unilateral 6-OHDA lesions (in vivo, endogenous receptor)
T3 sequence (P61169 whole entry): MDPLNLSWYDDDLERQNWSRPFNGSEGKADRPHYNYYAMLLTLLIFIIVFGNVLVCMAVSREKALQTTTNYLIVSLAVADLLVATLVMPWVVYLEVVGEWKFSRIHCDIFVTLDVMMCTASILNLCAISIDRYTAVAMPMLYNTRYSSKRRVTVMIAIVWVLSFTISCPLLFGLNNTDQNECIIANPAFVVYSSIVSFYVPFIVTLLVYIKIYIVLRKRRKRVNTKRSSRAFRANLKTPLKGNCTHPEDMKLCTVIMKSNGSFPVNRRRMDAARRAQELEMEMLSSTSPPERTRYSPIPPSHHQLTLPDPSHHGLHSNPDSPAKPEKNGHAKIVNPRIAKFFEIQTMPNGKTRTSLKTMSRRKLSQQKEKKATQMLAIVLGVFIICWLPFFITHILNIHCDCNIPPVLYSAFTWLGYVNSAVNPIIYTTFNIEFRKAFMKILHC
Protocol: ANTAGONISM OF PERGOLIDE-INDUCED CIRCLING BEHAVIOUR IN RATS WITH UNILATERAL 6-OHDA LESIONS
Dopamine (DA) D-2 agonists induce contralateral circling behaviour in rats with 6-OHDA lesions. Pergolide-induced circling is antagonized by DA D-2 antagonists.
Male Wistar rats (Mol:Wist) weighing about 200 g at the time of operation are used. Unilateral lesions are made in pentobarbital anaesthetized rats by injection of 6-OHDA. HCl 9.7 μg/μl (equivalent to 8 μg free base) per 4 min. into the rostral tip of the substantia nigra. The saline solution contains ascorbic acid 0.2 mg/ml, is bubbled with N2 and is kept ice-cold. The experiments are done when stable contralateral circling responses to pergolide (0.05 μmol/kg, s.c.) are obtained. The circling response is measured in rotometer bowls. Only rats showing more than 400 complete turns in 2 hrs control session are used. Dose-response curves are obtained by alternating test and control sessions on a weekly basis. The antagonists are injected s.c. 2 hrs before the agonist. The effect of individual doses of test drugs is calculated as per cent of the mean effect of control sessions one week before and one week after the test session for each rat. ED50 values are calculated by log-probit analysis. Four to eight rats are used at each dosage.

α1 adrenoceptors = assay: inhibition of 3H-prazosin binding to α1 adrenoceptors in rat brain in vitro; conditions: 3H-prazosin 0.25 nM, rat brain membranes, read-out: Binding IC50, 3H Praz.
Protocol: INHIBITION OF ^3 H-PRAZOSIN BINDING TO α1 ADRENOCEPTORS IN RAT BRAIN IN VITRO
Method and results in Hyttel and Larsen, J. Neurochem, 44, 1615-1622, 1985; Skarsfeldt and Hyttel, Eur. J. Pharmacol. 125, 323-340, 1986.
(§1) Male Wistar (Mol:Wist) rats (125-200 g) are sacrificed and brain tissue is dissected and weighed. The tissue is homogenized (Ultra Turrax, 10 sec.) in 10 ml of ice-cold 50 nM Tris buffer pH 7.7 (at 25° C.). The homogenate is centrifuged twice at 20,000 g for 10 min. at 4° C. with rehomogenization of the pellet in 10 ml ice-cold buffer. The final pellet is homogenized in 400 vol (w/v) ice-cold buffer.
Incubation tubes kept on ice in triplicate receive 100 μl of drug solution in water (or water for total binding) and 4000 μl of tissue suspension (final tissue content corresponds to 10 mg original tissue). The binding experiment is initiated by addition of 100 μl of ^3 H-Prazosin (final concentration 0.25 nM) and by placing the tubes in a 25° C. water bath. After incubation for 20 min. the samples are filtered under vacuum (0-50 mBar) through Whatman GF/F filters (25 mm). The tubes are rinsed with 5 ml ice-cold buffer which then are poured on the filters. Thereafter, the filters are washed with 5 ml of buffer. The filters are placed in counting vials and 4 ml of appropriate scintillation fluid (e.g. Picofluor™15) are added. After shaking for 1 h and storage 2 hrs in the dark the content of radioactivity is determined by liquid scintillation counting. Specific binding is obtained by subtracting the nonspecific binding in the presence of 1 μM of Prazosin.
(§2) For determination of the inhibition of binding five concentrations of drugs covering 3 decades are used.
The measured cpm are plotted against drug concentration on semilogarithmic paper and the best fitting S-shaped curve is drawn. The IC50 value is determined as the concentration at which the binding is 50% of the total binding in control samples minus the nonspecific binding in the presence of 1 μM of Prazosin. ^3 H-Prazosin=[furoyl-5-^3 H]-Prazosin from New England Nuclear, specific activity approximately 20 Ci/mmol.

dopamine D-2 receptors = molecular target: T4, dopamine D-2 receptors (Rattus norvegicus, UniProt P61169); assay: inhibition of 3H-spiperone binding to dopamine D-2 receptors in rat corpus striatum in vitro; conditions: 3H-spiperone 0.5 nM, rat corpus striatum membranes, in vitro; read-out: Binding IC50, 3H Spi.
T4 construct: striatal tissue is dissected and weighed; from tissue; host or cells: corpus striatum membranes of male Wistar rats
T4 sequence (P61169 whole entry): as above
Protocol: INHIBITION OF ^3 H-SPIPERONE BINDING TO DOPAMINE D-2 RECEPTORS IN RAT CORPUS STRIATUM IN VITRO
By this method the inhibition by drugs of the binding of ^3 H-spiperone (0.5 nM) to dopamine D-2 receptors in membranes from rat corpus striatum is determined in vitro. Method and results in Hyttel and Larsen, J. Neurochem, 44, 1615-1622, 1985).
as §1, with “(Mol:Wistar)” for “(Mol:Wist)”, “(125-250” for “(125-200”, “striatal” for “brain”, “mM K-phosphate” for “nM Tris”, “7.4” for “7.7”, “1300” for “400”
Incubation tubes kept on ice in triplicate receive 100 μl of drug solution in water (or water for total binding) and 4000 μl of tissue suspension (final tissue content corresponds to 3.08 mg original tissue). The binding experimental is initiated by addition of 100 μl of ^3 H-spiperone (final concentration 0.5 nM) and by placing the tubes in a 37° C. water bath. After incubation for 10 min. the samples are filtered under vacuum (0-50 mBar) through Whatman GF/F filters (25 mm). The tubes are rinsed with 5 ml ice-cold buffer which are then poured on the filters. Thereafter, the filters are washed with 2×5 ml of buffer. The filters are placed in counting vials and 4 ml of appropriate scintillation fluid (e.g. Picofluor ™15) are added. After shaking for 1 h and storage 2 hrs in the dark the content of radioactivity is determined by liquid scintillation counting. Specific binding is obtained by subtracting the nonspecific binding in the presence of 10 μM of 6,7-ADTN.
as §2
England, specific activity 15-25 Ci/mmol.

[2] = sc, 2 h, read-out: Quipazine inhibition ED50, 2h (sc)
[3] = po, 24 h, read-out: Quipazine inhibition ED50, 24h (po)

Row | Compound | IC50 [1] | ED50 (5-HT2; [2]) | ED50 (DA D-2) | ED50 (5-HT2; [3]) | IC50 (α1 adrenoceptors) | IC50 (dopamine D-2 receptors)
1 | O=C1NCCN1CCN1CCC(c2cn(-c3ccc(F)cc3)c3cc(Cl)ccc23)CC1 [Compound 4b, 6-chloro-1-(4-fluorophenyl)-3-[1-[2-(2-imidazolidinon-1yl)ethyl]-4-piperidyl]-1H-indole] | 1.4 nM | 0.06 µmol/kg | > 23 µmol/kg |  |  | 
2 | O=C1NCCN1CCN1CCC(c2cn(-c3ccc(F)cc3)c3cc(Cl)c(Cl)cc23)CC1 [Compound 5f, 5,6-dichloro-1-(4-fluorophenyl)-3-[1-[2-(2-imidazolidinon-1-yl)ethyl]-4-piperidyl]-1H-indole] | 3.5 nM | 0.12 µmol/kg | > 42 µmol/kg | 0.04 µmol/kg |  | 
3 | Cc1ccc2c(N3CCN(CCN4CCN(C(C)C)C4=O)CC3)cn(-c3ccc(F)cc3)c2c1 [Compound 6b, 1-(4-fluorophenyl)-6-methyl-3-[4-[2-[3-(2-propyl)-2-imidazolidinon-1-yl]ethyl]-1-piperazinyl]-1H-indole] | 2.7 nM | 0.04 µmol/kg |  |  | 76 nM | 180 nM
4 | Cc1ccc2c(C3CCN(CCNC(=O)N(C)C)CC3)cn(-c3ccc(F)cc3)c2c1 [Compound 9b, 3-[1-[2-(3,3-dimethyl-1-ureido)-1-ethyl]-4-piperidyl]-1-(4-fluorophenyl)-6-methyl-1H-indole] | 2.6 nM | 0.12 µmol/kg |  | < 0.14 µmol/kg |  | 
5 | Cc1ccc2c(C3CCN(CCN4CCN(C(C)C)C4=O)CC3)cn(-c3ccccc3)c2c1 [Compound 15a] | 2 nM | 0.01 µmol/kg |  |  | 120 nM | 500 nM
6 | Cc1ccc2c(C3CCN(CCN4CCN(C(C)C)C4=O)CC3)cn(-c3cccc(F)c3)c2c1 [Compound 15g, 1-(3-fluorophenyl)-3-[1-[2-[3-(2-propyl)-2-imidazolidinon-1-yl]ethyl]-4-piperidyl]-6-methyl-1H-indole] | 11 nM |  |  |  | 670 nM | 3200 nM
7 | Cc1ccc2c(C3CCN(CCN4CCN(C(C)C)C4=O)CC3)cn(-c3ccc(Cl)cc3)c2c1 [Compound 15h, 1-(4-chlorophenyl)-3-[1-[2-[3-(2-propyl)-2-imidazolidinon-1-yl]ethyl]-4-piperidyl]-6-methyl-1H-indole] | 6 nM |  |  |  | 450 nM | 620 nM
8 | CC(C)N1CCN(CCN2CCC(c3cn(-c4ccccc4F)c4cc(Cl)ccc34)CC2)C1=O [Compound 15j, 6-chloro-1-(2-fluorophenyl)-3-[1-[2-[3-(2-propyl)-2-imidazolidinon-1-yl]ethyl]-4-piperidyl]-1H-indole] | 3.7 nM | 0.08 µmol/kg |  |  | 120 nM | 300 nM
9 | Cc1ccc2c(c1)N(c1ccc(F)cc1)CC2C1CCN(CCN2CCN(C(C)C)C2=O)CC1 (centres unmarked) [Compound 20a, 1-(4-fluorophenyl)-6-methyl-3-[1-[2-[3-(2-propyl)-2-imidazolidinon-1-yl]ethyl]-4-piperidyl]-2,3-dihydro-1H-indole] | 5.3 nM | 0.49 µmol/kg |  |  |  | 180 nM
10 | Cc1c(C2CCN(CCN3CCNC3=O)CC2)c2ccccc2n1-c1ccc(F)cc1 [Compound 24c, 1-(4-fluorophenyl)-3-[1-[2-(2-imidazolidinon-1-yl)ethyl]-4-piperidyl]-2-methyl-1H-indole] | 0.69 nM |  |  |  | 61 nM | 380 nM
11 | CN(C)CCSc1nc2ccccc2cc1-c1ccccc1 [ICI 169369, reference compound] | 15 nM | > 3.6 µmol/kg |  |  | 300 nM | 490 nM
